In patent publication US11226337B2, “Chemoproteomic profiling of protein electrophilic and oxidative post-translational modifications” (Zenagem, LLC, priority 2017, dated 2022):

Experiments:
Test in all cases: SILAC RP-ABPP
Format in all cases: cell-based
[1] = target: T1, GAA Lysosomal alphaglucosidase (P10253) (Homo sapiens, UniProt P10253); details: SILAC H/L, MDA-MB-231
T1 construct: In Situ Labelling of Cells with Hydrazine Probes for MS Experiments; endogenous in cells

[2] = target: T2, ALDOC Fructosebisphosphate aldolase C (P09972) (Homo sapiens, UniProt P09972); details: SILAC H/L, HEK293T
T2 construct: shared by both the endogenous and recombinant forms of these proteins; endogenous in cells; host or cells: HEK293T and MDA-MB-231
T2 sequence (P09972 1-364): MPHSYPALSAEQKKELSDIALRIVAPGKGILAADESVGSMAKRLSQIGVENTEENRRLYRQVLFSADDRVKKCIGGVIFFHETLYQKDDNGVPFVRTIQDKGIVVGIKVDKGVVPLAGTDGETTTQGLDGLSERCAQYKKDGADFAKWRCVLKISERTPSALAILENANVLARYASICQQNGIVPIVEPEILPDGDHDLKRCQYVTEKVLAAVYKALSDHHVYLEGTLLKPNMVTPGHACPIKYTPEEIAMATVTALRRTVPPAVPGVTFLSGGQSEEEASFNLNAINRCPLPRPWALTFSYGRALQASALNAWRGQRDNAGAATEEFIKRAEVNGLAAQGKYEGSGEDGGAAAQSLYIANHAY
Summary of the method: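 SILAC cells (HEK293T, MDA-MB-231) grown near confluence; heavy: probe 1, 3 mM, 0.5 h; light: equal 3 or probe + 10× 3. Proteomes mixed equimolar, CuAAC with 100 μM biotin-azide, 1 h RT; enrichment, LC-MS. Ratios via CIMAGE-type extraction, ≥3 peptides.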

[3] = target: T3, P4HA1 Prolyl 4hydroxylase subunit alpha1 (P13674) (Homo sapiens, UniProt P13674); details: SILAC H/L, MDA-MB-231
T3 construct: In Situ Labelling of Cells with Hydrazine Probes for MS Experiments; endogenous in cells
T3 sequence (P13674 18-534): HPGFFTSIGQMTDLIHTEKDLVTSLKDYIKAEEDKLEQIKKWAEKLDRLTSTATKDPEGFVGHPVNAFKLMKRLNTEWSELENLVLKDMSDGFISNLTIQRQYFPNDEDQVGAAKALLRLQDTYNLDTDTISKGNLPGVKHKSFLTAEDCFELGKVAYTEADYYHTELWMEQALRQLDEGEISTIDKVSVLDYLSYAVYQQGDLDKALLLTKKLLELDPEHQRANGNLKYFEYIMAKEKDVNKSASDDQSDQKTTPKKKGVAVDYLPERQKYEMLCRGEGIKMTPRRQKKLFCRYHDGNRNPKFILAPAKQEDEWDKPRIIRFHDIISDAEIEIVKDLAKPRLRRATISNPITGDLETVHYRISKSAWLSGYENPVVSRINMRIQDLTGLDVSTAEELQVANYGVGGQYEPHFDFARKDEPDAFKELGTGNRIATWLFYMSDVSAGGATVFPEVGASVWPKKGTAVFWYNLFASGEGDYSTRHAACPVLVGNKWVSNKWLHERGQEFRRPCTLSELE
T3 sequence (P07237 18-508 partner): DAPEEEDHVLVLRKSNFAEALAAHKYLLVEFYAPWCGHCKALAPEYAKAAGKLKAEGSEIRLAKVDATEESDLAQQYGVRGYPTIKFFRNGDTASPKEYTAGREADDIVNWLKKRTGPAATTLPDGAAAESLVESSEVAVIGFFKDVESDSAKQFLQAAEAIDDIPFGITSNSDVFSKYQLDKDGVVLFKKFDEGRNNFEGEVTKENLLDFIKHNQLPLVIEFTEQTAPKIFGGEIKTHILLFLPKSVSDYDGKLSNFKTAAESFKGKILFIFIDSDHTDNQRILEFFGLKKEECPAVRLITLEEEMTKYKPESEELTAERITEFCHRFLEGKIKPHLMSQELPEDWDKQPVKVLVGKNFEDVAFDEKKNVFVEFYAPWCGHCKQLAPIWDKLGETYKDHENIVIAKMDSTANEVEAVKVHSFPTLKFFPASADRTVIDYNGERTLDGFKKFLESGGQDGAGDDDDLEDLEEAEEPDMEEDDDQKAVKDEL

[4] = target: T4, CTSD Cathepsin D (P07339) (Homo sapiens, UniProt P07339); details: SILAC H/L
T4 construct: In Situ Labelling of Cells with Hydrazine Probes for MS Experiments; endogenous in cells; host or cells: HEK293T and MDA-MB-231
T4 sequence (P07339 65-412): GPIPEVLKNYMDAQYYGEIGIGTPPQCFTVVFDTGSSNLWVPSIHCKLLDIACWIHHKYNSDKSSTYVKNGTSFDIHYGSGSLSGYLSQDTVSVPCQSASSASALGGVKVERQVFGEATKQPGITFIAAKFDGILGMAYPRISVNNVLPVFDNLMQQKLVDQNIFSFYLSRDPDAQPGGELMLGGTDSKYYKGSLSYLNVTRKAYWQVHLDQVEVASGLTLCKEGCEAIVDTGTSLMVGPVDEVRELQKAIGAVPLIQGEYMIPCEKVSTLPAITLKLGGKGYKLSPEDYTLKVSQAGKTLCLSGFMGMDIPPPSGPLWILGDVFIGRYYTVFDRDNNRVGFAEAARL

[5] = target: T5, LIPA Lysosomal acid lipase/cholesteryl ester (P38571) (Homo sapiens, UniProt P38571); details: SILAC H/L, MDA-MB-231
T5 construct: In Situ Labelling of Cells with Hydrazine Probes for MS Experiments; endogenous in cells
T5 sequence (P38571 77-399): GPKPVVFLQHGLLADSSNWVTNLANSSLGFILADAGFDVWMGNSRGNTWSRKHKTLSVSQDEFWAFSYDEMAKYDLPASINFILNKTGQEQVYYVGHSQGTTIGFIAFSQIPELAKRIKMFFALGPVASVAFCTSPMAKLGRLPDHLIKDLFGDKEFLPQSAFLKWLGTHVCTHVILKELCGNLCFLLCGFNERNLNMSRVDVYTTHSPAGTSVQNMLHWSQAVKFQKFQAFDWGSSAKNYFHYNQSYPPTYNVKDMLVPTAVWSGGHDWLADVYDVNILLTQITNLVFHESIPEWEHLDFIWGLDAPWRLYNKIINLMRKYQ

[6] = target: T6, TPP1 Tripeptidylpeptidase 1 (O14773) (Homo sapiens, UniProt O14773); details: SILAC H/L, MDA-MB-231
T6 construct: In Situ Labelling of Cells with Hydrazine Probes for MS Experiments; endogenous in cells; host or cells: HEK293T and MDA-MB-231
T6 sequence (O14773 196-563): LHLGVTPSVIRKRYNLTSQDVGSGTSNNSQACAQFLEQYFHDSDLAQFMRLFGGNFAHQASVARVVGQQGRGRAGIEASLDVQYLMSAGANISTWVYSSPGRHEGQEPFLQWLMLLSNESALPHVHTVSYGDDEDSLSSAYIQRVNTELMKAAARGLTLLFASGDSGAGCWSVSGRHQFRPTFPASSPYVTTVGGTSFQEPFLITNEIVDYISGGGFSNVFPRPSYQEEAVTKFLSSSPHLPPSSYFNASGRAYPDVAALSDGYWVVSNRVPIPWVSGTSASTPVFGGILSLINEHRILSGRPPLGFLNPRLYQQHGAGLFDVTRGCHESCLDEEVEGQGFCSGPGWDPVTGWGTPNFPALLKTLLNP

Work on C#CCNN.Cl [probe 1, prop-2-yn-1-ylhydrazine hydrochloride] yielded an enrichment ratioavg ([1]; probe 1 3 mM 0.5 h vs probe 3) of 9, a competition ratioavg ([1]; probe 1 vs probe 1+10x probe 3) of 2 and an enrichment ratioavg ([2]; probe 1 3 mM 0.5 h vs probe 3) of 16. It also gave a competition ratioavg ([2]; probe 1 vs probe 1+10x probe 3) of 3, an enrichment ratioavg ([3]; probe 1 3 mM 0.5 h vs probe 3) of 15 and a competition ratioavg ([3]; probe 1 vs probe 1+10x probe 3) of 2. It also gave an enrichment ratioavg ([4]; probe 1 3 mM 0.5 h vs probe 3, HEK293T) of 13, a competition ratioavg ([4]; probe 1 vs probe 1+10x probe 3, HEK293T) of 1 and an enrichment ratioavg ([5]; probe 1 3 mM 0.5 h vs probe 3) of 7. The competition ratioavg ([5]; probe 1 vs probe 1+10x probe 3) was 4, the enrichment ratioavg ([6]; probe 1 3 mM 0.5 h vs probe 3) was 15 and the competition ratioavg ([6]; probe 1 vs probe 1+10x probe 3) was 3.

C#CCCNC(=O)c1ccc(NN)cc1.Cl [probe 2, N-(but-3-yn-1-yl)-4-hydrazinylbenzamide hydrochloride] was tested, and the enrichment ratioavg ([1]; probe 2 1 mM 0.5 h vs probe 4) was 20, the competition ratioavg ([1]; probe 2 vs probe 2+10x probe 4) was 4 and the enrichment ratioavg ([2]; probe 2 1 mM 0.5 h vs probe 4) was 14. The competition ratioavg ([2]; probe 2 vs probe 2+10x probe 4) was 5, the enrichment ratioavg ([3]; probe 2 1 mM 0.5 h vs probe 4) was 8 and the competition ratioavg ([3]; probe 2 vs probe 2+10x probe 4) was 3. The enrichment ratioavg ([4]; probe 2 1 mM 0.5 h vs probe 4, MDA-MB-231) was 16, the competition ratioavg ([4]; probe 2 vs probe 2+10x probe 4, MDA-MB-231) was 4 and the enrichment ratioavg ([5]; probe 2 1 mM 0.5 h vs probe 4) was 17. The competition ratioavg ([5]; probe 2 vs probe 2+10x probe 4) was 3, the enrichment ratioavg ([6]; probe 2 1 mM 0.5 h vs probe 4) was 18 and the competition ratioavg ([6]; probe 2 vs probe 2+10x probe 4) was 4.
